We go through three compounds from publication PMC8198214, “Synthesis and Biological Evaluation of Spirocyclic Chromane Derivatives as a Potential Treatment of Prostate Cancer” (Molecules, 2021).

Data set [1] deals with 22Rv1 cells. Description: 22Rv1 cell viability (CCK-8) antiproliferation assay. The data set is classed as cell-based, human. To be noted: for IC50: Table 2, 22Rv1 cells, means of two independent experiments (n = 2). The method, then:
The 22Rv1 prostate cancer cell line in this study was purchased from KeyGEN Biotech Co. Ltd. (Nanjing, Jiangsu, China ). The cells were cultured in RPMI 1640 medium and maintained at 37 °C in a 5% CO2 incubator. For the cell viability assay, the cell slurry was diluted to required volume at a density of 80,000 cells/mL. Then, 100 μL the cell slurry was seeded in each well of the 96-well plate. The cells were incubated for 72 h at 37 °C, 5% CO2 under humidified condition. The reference and test compounds solution (200×) were prepared with DMSO and were diluted from 200× to 1× with culture medium (RPMI 1640 medium without phenol red and containing 10% fetal calf serum, penicillin (100U/mL), streptomycin (100 μg/mL) and 0.1 nM DHT). The previous culture medium was removed and 200 μL/well of the compound solution (1×) was added to assay plate (final conc: 1×). Then the cells were incubated at 37 °C, 5% CO2 under humidified conditions. 5 Days later, the CCK-8 assay reagent was equilibrated at room temperature for 30 min prior to use. CCK-8 was mixed with fresh medium at a ratio of 1:10 and 100 μL of the diluted CCK8 reagent was added to each well and the plates were incubated for 4.5 h at 37 °C. Finally, absorbance value (OD value) was read on plate reader. GraphPad Prism v5.0 software was used to process data for IC50.

The nature of data set [2]: Pharmacokinetics in male Balb/C mice (IV and PO). In kind it is in vivo. The settings on record: mouse, plasma; for clearance: n = 3, read-out: CL (clearance) (converted); for Vd: n = 3, read-out: V ss (0–24 h) (volume of distribution at steady state); for bioavailability: PO. 10 mg/kg vs IV. 1 mg/kg, n = 3, read-out: F (oral bioavailability); for Cmax: n = 3, Table 3, read-out: Cmax (maximum concentration observed). The method, then: Pharmacokinetic experiments of test compounds were performed in male Balb/C mice similarly to our previous work. The mice were randomly assigned to two groups and were administrated the test compound orally and intravenously, respectively. The test compounds were prepared into 0.5 mg/mL oral solution with 10%PG, 10% ethanol, 10% solutol and 70% normal saline, or 0.1 mg/mL injection solution with 2% PG, 2% ethanol, 2% solutol and 94% normal saline. After intravenous or oral administration, blood was collected from the orbital venous plexus into heparinized EP tube (0.6 mL) at 5, 15, 30 min, 1, 2, 6, 10, and 24 h, temporarily placed on crushed ice. Certain processing was performed on blood samples and testing samples were sent to LC-MS/MS for analysis.

[3] abbreviates: IV. 1 mg/kg, n = 3, read-out: AUC(0–24h).
Setting [4] is: IV. 1 mg/kg, n = 3, read-out: T1/2 (half-life) (converted).
[5] abbreviates: PO. 10 mg/kg, n = 3, Table 3, read-out: AUC (0–24 h).
Where [6] appears, read: PO. 10 mg/kg, n = 3, Table 3, read-out: T1/2 (converted).

Where two headings read alike, the source gives them in different places.

As a reminder, the IC50 is the concentration needed to halve the response being measured. The low end stands for inhibition by little substance, the high end for a need for much substance. In general, bioavailability refers to dose-corrected exposure relative to a reference, in per cent. The compound `CNC(=O)Cn1cc(-c2ccc3c(c2)CCC32OC(=O)N(CC(=O)N(Cc3ccc(F)cc3)[C@H]3CCc4cccnc43)C2=O)cn1` (stereo partly drawn) [B8, N-((S)-6,7-Dihydro-5H-cyclopenta[b]pyridin-7-yl)-N-(4-fluorobenzyl)-2-(5-(1-(2-(methylamino)-2-oxoethyl)-1H-pyrazol-4-yl)-2′,4′-dioxo-2,3-dihydrospiro[indene-1,5′-oxazolidin]-3′-yl)acetamide] came in with a half-maximal inhibitory concentration (IC50) in data set [1] (Homo sapiens) of 153 nM. In addition, the AUC(0-t) is 766 ± 71.2 ng·h/mL in data set [2] (setting [3]) and 1660 ± 294 ng·h/mL in data set [2] (setting [5]). For the same compound, in data set [2] (IV. 1 mg/kg), the clearance is 18.3 mL/min/kg. Moreover, the half-life in data set [2] (setting [4]) is 17 ± 4.9 h; in data set [2] (setting [6]) it was 23.9 ± 3.6 h. For the same compound, the Vd in data set [2] (IV. 1 mg/kg) worked out at 13.2 ± 4.2 L/kg. Also, the bioavailability in data set [2] amounted to 21.6 ± 3.8%. In addition, the Cmax in data set [2] (PO. 10 mg/kg) was 878 ± 94.3 ng/mL.

Turning to `CNC(=O)Cn1cc(-c2ccc3c(c2)CCC32OC(=O)N(CC(=O)N(Cc3ccc(F)cc3)[C@H]3CCOc4ccccc43)C2=O)cn1` (stereo partly drawn) [B16, N-((S)-chroman-4-yl)-N-(4-fluorobenzyl)-2-(5-(1-(2-(methylamino)-2-oxoethyl)-1H-pyrazol-4-yl)-2′,4′-dioxo-2,3-dihydrospiro[indene-1,5′-oxazolidin]-3′-yl) acetamide], the “fold more potency than A-485” value in data set [1] (22Rv1 cell antiproliferation) was 2 fold. In data set [1] (Homo sapiens), this compound had an IC50 of 96 nM. Also, the values for the AUC(0-t) in data set [2] (setting [3]) and in data set [2] (setting [5]) were 536 ± 18.1 ng·h/mL and 1780 ± 158 ng·h/mL, respectively. Also, in data set [2] (IV. 1 mg/kg), the clearance is 30 mL/min/kg. The half-life in data set [2] (setting [4]) is 0.5 h; in data set [2] (setting [6]), 1.6 ± 0.3 h. The Vd in data set [2] (IV. 1 mg/kg) is 1 ± 0.1 L/kg. Besides, the bioavailability in data set [2] worked out at 33.2 ± 3%. For the same compound, the Cmax in data set [2] (PO. 10 mg/kg) came out at 759 ± 76.5 ng/mL.

Regarding “N-(4-Fluorobenzyl)-N-((S)-1-methyl-4,5,6,7-tetrahydro-1H-indazol-4-yl)-2-(5-(1-(2-(methylamino)-2-oxoethyl)-1H-pyrazol-4-yl)-2′,4′-dioxo-2,3-dihydrospiro [indene-1,5′-oxazolidin]-3′-yl)acetamide [B14]”, in data set [1], half-maximal inhibition (IC50) required 1090 nM.
